In patent publication US20240197666A1, “DITERPENOID COMPOUNDS THAT ACT ON PROTEIN KINASE C (PKC)” (K-Gen Therapeutics, Inc., priority 2021, published 2024):
Where two headings read alike, the source gives them in different places.

Columns and labels:
[1] = system: NFκB-driven transcription in HeLa-NFκB luciferase reporter cell line; test: NFκB luciferase reporter assay; settings: for block of NFκB activation induced by PKC activator compounds: PKC inhibitor added at the same time as the PKC activator compounds
Protocol: A HeLa-NFκB luciferase reporter cell line (Wuxi Biology) was used to assess a group of PKC activator compounds for their ability to activate NFκB-driven transcription. […] One set of cells was assayed for luciferase activity (Promega, Cat #E1500) and the other set was assayed to determine the number of viable cells (for cell number normalization) using CellTiter-Glo (CTG) kit (Promega, Cat #G7570) according to manufacture's procedures. Normalized data (luciferase value/CTG value) were analyzed using GraphPad Prism5 to calculate EC50 for each compound (see Table 8).
To assess if activation of PKC is required for these compounds to activate NFκB, several PKC inhibitors including broad-spectrum and conventional PKC inhibitors were tested. In the assay described above, PKC inhibitors were added at the same time as the PKC activator compounds.

C1b domain of human PKCδ = molecular target: T1, C1b domain of human PKCδ (Homo sapiens, UniProt Q05655); test: biochemical; type: binding; settings: 3H-PDBu competition
T1 construct: Genes encoding C1b domains of human PKCα, δ, ε, θ, and PKD1 (PKCμ) were synthesized; made in house; host or cells: E. coli BL21(DE3)
Protocol: Compounds described in this disclosure were tested for binding affinity to C1b domain of PKC isoforms. Compound binding affinity to C1b domain of PKC isoforms was derived from competitive binding assay using radioactive tracer ^3H-PDBu and recombinant GST-C1b or full-length of human PKC proteins based on modified procedures from Methods in Molecular Biology, vol.
Genes encoding C1b domains of human PKCα, δ, ε, θ, and PKD1 (PKCμ) were synthesized and inserted into pGEX-2TK or pGEX-4T1 vectors for expression and production of GST-C1b proteins in E. coli BL21(DE3) via IPTG induction. The target proteins were purified by glutathione sepharose 4B and followed by ion exchange chromatography if needed to achieve purity >70%. Aliquots of the purified proteins were stored at −80 degree for binding assay (storage buffer: 20 mM Tris pH 8.0, 200 mM NaCl, 10% glycerol, 1 mM DTT).
The plate was incubated at 37° C. on a shaker at 300 rpm for 10 minutes and then put on ice for 20 minutes. […] The bottom of the filter plate was sealed and 50 μL of MicroScint-20 (PerkinElmer) cocktail was added to each well. ^3H-PDBu trapped in each well was counted using PerkinElmer MicroBeta2 Reader. Data were analyzed using GraphPad Prism5 with the model “log(inhibitor) vs. response-variable slope” to fit the IC50, and then IC50 was transformed to Ki using Cheng-Prusoff equation: Ki=IC50/(1+added radio ligand/Kd). Kd is the binding affinity of each protein preparation to ^3H-PDBu, determined experimentally.

A549 cell line = test: Proliferation of A549 (CellTiter Glo); type: cell-based; settings: read-out: IC50 μM (A549 Cell Line)
Protocol: (§1) The diterpenoid compounds were tested in A549, a non-small cell lung cancer cell line harboring a K-Ras activating mutation. Briefly, A549 cells at a density of 1,000 cells/well were seeded in 96-well plates and incubated at 37° C. for 24 hours. A series of different concentrations of compound stocks (500×) were prepared by 3-fold serial dilution in DMSO. These compounds were further diluted in culture media and then added to cells so that the final DMSO concentration was not exceeding 0.25%. After 96 hours of incubation, 50 μL of CellTiter Glo reagent (Promega) was added to each well and luminescence was measured after 10 minutes using EnVision (PerkinElmer). Luminescence from cells treated with DMSO alone was set as Max and % of inhibition was calculated as follows: Inhibition %=(Max-Sample value)/Max×100. Data was analyzed using XL-fit software (ID Business Solutions Ltd.) and IC50, relative IC50, and % of top inhibition was calculated. Some of the compounds in this disclosure were very potent in blocking proliferation of A549 lung cancer cells at low nM range. In addition, potency of inhibiting A549 proliferation correlated well with its binding affinity to PKCs for this series of compounds. In other words, higher affinity binders had stronger inhibitory effects on A549 proliferation. This further support the notion that activation, rather than inhibition, of certain PKC isoforms is required to block proliferation of cancer cells, some of which may harbor K-Ras mutations. This is in sharp contrast to previous literature and common belief that inhibition of PKC is necessary to block cancer cell growth (Kang, 2014, New Journal of Science, 2014:1-36). Data presented here is in agreement with recent findings that many loss-of-function but not gain-of-function mutations of PKC isoforms have been identified in many human cancers (Antal et al., 2015, Cell, 160:489-502).

HL-60 (Leukemia) = test: Proliferation of HL-60; type: cell-based
Protocol: as §1
(§2) The compounds in this disclosure were tested for their potency in blocking proliferation of a few other cancer cells lines, including K-Ras mutant pancreatic cell lines Panc2.13 and KP-4, leukemia cell line HL-60, and lymphoma cell lines Namalwa and Mino. Similar procedures as in Example 67 were followed. Initial cell numbers seeded in 96-well plates were different for different cell lines: 3000 cells/well for Panc2.13; 800-1000 cells/well for KP-4; 5000 cells/well for HL-60; 5000-10000 cells/well for Namalwa and Mino. A ratio of (IC50 of K101)/(IC50 of compound) (data in parenthesis in Table 5) was used to normalize the compound potency from different assay batches to a common comparator K101.

Namalwa (Lymphoma) = test: Proliferation of Namalwa; type: cell-based
Protocol: as §1, §2

Mino (Lymphoma) = test: Proliferation of Mino; type: cell-based
Protocol: as §1, §2

T1 sequence (Q05655 230-280 limits assumed): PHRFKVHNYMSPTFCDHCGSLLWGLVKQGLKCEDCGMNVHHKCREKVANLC

Structure (SMILES): CN1CCN(c2nc(C3=C(c4c[nH]c5ccccc45)C(=O)NC3=O)c3ccccc3n2)CC1 [Sotrastaurin, reference compound]
- block of NFκB activation induced by PKC activator compounds [1]: completely block

Structure (SMILES): CC1=C[C@H]2[C@@]3(O)[C@H](C)C[C@]4(OC(=O)[C@@H](N)CC5CC5)[C@H]([C@@H]3C=C(CO)C[C@]2(O)C1=O)C4(C)C
- Ki (C1b domain of human PKCδ): 60 to 100 nM
- IC50 (A549 cell line; Homo sapiens, A549, 96 h): 2 to 5 µM

Structure (SMILES): CC1=C[C@H]2[C@@]3(O)[C@H](C)C[C@]4(OC(=O)[C@@H](N)CC(C)(C)C)[C@H]([C@@H]3C=C(CO)C[C@]2(O)C1=O)C4(C)C
- Ki (C1b domain of human PKCδ): 10 to 30 nM
- IC50 (A549 cell line; Homo sapiens, A549, 96 h): 0.2 to 0.6 µM

Structure (SMILES): CCCC[C@H](N)C(=O)O[C@@]12C[C@@H](C)[C@@]3(O)[C@@H](C=C(CO)C[C@]4(O)C(=O)C(C)=C[C@@H]34)[C@@H]1C2(C)C
- Ki (C1b domain of human PKCδ): 10 to 30 nM
- IC50 (A549 cell line; Homo sapiens, A549, 96 h): 0.6 to 1 µM

Structure (SMILES): CC1=C[C@H]2[C@@]3(O)[C@H](C)C[C@]4(OC(=O)[C@@H](N)C5Cc6ccccc6C5)[C@H]([C@@H]3C=C(CCl)C[C@]2(O)C1=O)C4(C)C
- IC50 (A549 cell line; 96 hours, CellTiter Glo): 0.06 to 0.1 µM

Structure (SMILES): CC1=C[C@H]2[C@@]3(O)[C@H](C)C[C@]4(OC(=O)C[C@@H](N)CCc5ccccc5)[C@H]([C@@H]3C=C(CO)C[C@]2(O)C1=O)C4(C)C
- Ki (C1b domain of human PKCδ): 10 to 30 nM
- IC50 (A549 cell line; Homo sapiens, A549, 96 h): 0.6 to 1 µM

Structure (SMILES): CC1=C[C@H]2[C@@]3(O)[C@H](C)C[C@]4(OC(=O)C5CC6(CNC6)C5)[C@H]([C@@H]3C=C(CO)C[C@]2(O)C1=O)C4(C)C
- IC50 (A549 cell line; Homo sapiens, A549, 96 h): > 30 µM

Structure (SMILES): CC1=C[C@H]2[C@@]3(O)[C@H](C)C[C@]4(OC(=O)[C@@H](N)CC5CCC5)[C@H]([C@@H]3C=C(CO)C[C@]2(O)C1=O)C4(C)C
- IC50 (A549 cell line; Homo sapiens, A549, 96 h): 1 to 2 µM

Structure (SMILES): CC1=C[C@H]2[C@@]3(O)[C@H](C)C[C@]4(OC(=O)[C@H](O)Cc5ccccc5)[C@H]([C@@H]3C=C(CO)C[C@]2(O)C1=O)C4(C)C
- IC50 (A549 cell line; Homo sapiens, A549, 96 h): 2 to 5 µM

Structure (SMILES): Cn1c2ccccc2c2c3c(c4c5ccccc5n(CCC#N)c4c21)CNC3=O [Compound G66976, G66976, reference compound]
- block of NFκB activation induced by PKC activator compounds [1]: unable to block

Structure (SMILES): CC1=C[C@H]2[C@@]3(O)[C@H](C)C[C@]4(OC(=O)CCc5cnn(C)c5)[C@H]([C@@H]3C=C(CO)C[C@]2(O)C1=O)C4(C)C
- IC50 (A549 cell line; Homo sapiens, A549, 96 h): 2 to 5 µM

Structure (SMILES): CC1=C[C@H]2[C@@]3(O)[C@H](C)C[C@]4(OC(=O)CCc5ccc(C(F)(F)F)cc5)[C@H]([C@@H]3C=C(CO)C[C@]2(O)C1=O)C4(C)C
- IC50 (A549 cell line; Homo sapiens, A549, 96 h): 0.01 to 0.03 µM
- ratio (IC50 of K101)/(IC50 of compound) HL-60 (HL-60 (Leukemia)): 72
- IC50 (HL-60 (Leukemia); Homo sapiens, HL-60, read-out: IC50 HL-60 (Leukemia)): 1 to 10 nM
- ratio (IC50 of K101)/(IC50 of compound) Namalwa (Namalwa (Lymphoma)): 13.8
- IC50 (Namalwa (Lymphoma); read-out: IC50 Namalwa (Lymphoma)): 1 to 10 nM
- ratio (IC50 of K101)/(IC50 of compound) Mino (Mino (Lymphoma)): 75
- IC50 (Mino (Lymphoma); Homo sapiens, MINO, read-out: IC50 Mino (Lymphoma)): < 1 nM
- EC50 ([1]; Homo sapiens, HeLa, 16 h, read-out: NFκB-luc HeLa cells EC50 (μM)): 0.01 to 0.03 µM

Structure (SMILES): CSCC[C@H](N)C(=O)O[C@@]12C[C@@H](C)[C@@]3(O)[C@@H](C=C(CO)C[C@]4(O)C(=O)C(C)=C[C@@H]34)[C@@H]1C2(C)C
- IC50 (A549 cell line; Homo sapiens, A549, 96 h): 5 to 10 µM

Structure (SMILES): CC1=C[C@H]2[C@@]3(O)[C@H](C)C[C@]4(OC(=O)[C@H](CC5CCCCC5)N(C)C)[C@H]([C@@H]3C=C(CO)C[C@]2(O)C1=O)C4(C)C
- IC50 (A549 cell line; Homo sapiens, A549, 96 h): 0.6 to 1 µM
